Tests used:
[1] = tested on: HBV AD38 viral particles in HepG2 cell line overexpressing NTCP; assay: HBV DNA Quantification Assay; format: cell-based; conditions: Hepatitis B virus, HepG2, 120 h, HBV-infected HepG2-NTCP cells, 5 days incubation, HBV DNA in culture supernatant (QuantiGene 2.0); geometric mean of a minimum of four determinations
Protocol: HBV DNA Quantification Assay
A HepG2 cell line overexpressing the HBV virus attachment receptor sodium-taurocholate cotransporting polypeptide (NTCP) was grown to confluency in DMEM growth medium, Dulbecco's Modified Eagle Medium without sodium pyruvate (Life Technologies, Rockville, Md.) supplemented with 10% FBS (Thermo Scientific, Waltham, Md.), 1% penicillin/streptomycin (Life Technologies, Rockville, Md.) and 2 mM L-glutamine (Life Technologies, Rockville, Md.) in T175 flasks. Cells were infected with HBV AD38 viral particles (Texcell, Frederick, USA) at 4000 genome equivalents per cell. After allowing viral infection to take place for 4 days, the infected cells were harvested from the flasks by trypsinization, washed twice with OptiMEM (Life Technologies, Rockville, Md.) and re-suspended in DMEM containing 2% FBS and 1% DMSO at a density of 0.25E6 cells/ml. Infected cells were seeded on 384 well collagen coated plates (Greiner, Austria) at a density of 20,000 cells/well containing serially diluted compounds of the present disclosure or DMSO (0.5%) in a final volume of 80 μl. The assay plates were incubated for a period of 5 days and the antiviral activity of the test compounds were assayed by detecting the presence of HBV DNA in the culture supernatant using the QuantiGene™ 2.0 nucleic acid quantification kit (Affymetrix, Santa Clara, Calif.).
The culture supernatant was harvested and treated with lysis buffer containing Proteinase K (Affymetrix, Santa Clara, Calif.). The supernatant was incubated with HBV viral DNA specific probes (Affymetrix, Santa Clara, Calif.) for 30 minutes at 55° C. This was followed by addition of 0.2M NaOH for 30 minutes at room temperature to denature the DNA, followed by addition of Neutralization buffer (Affymetrix, Santa Clara, Calif.). The resulting lysed and neutralized supernatant was then added to QuantiGene™ 2.0 384 well plates coated with capture oligonucleotides and incubated overnight at 55° C. The HBV specific probe set consists of Capture Extender oligonucleotides (CE's) and blocking probes. Following the overnight incubation, the wells were incubated for one hour sequentially with a Pre-Amplifier, Amplifier and Labeled probes conjugated to alkaline phosphatase with a wash step between incubations. After the final wash step, the alkaline phosphatase substrate (Luminol APS5) was added and the resulting luminescence signal was read in an EnVision Multilabel Plate Reader (PerkinElmer, Santa Clara, Calif.). The EC50 values were calculated from the fit of the dose—response curves to a four-parameter equation. All EC50 values represent geometric mean values of a minimum of four determinations.

[2] = Hepatic Stability Assay (in vitro half-life method); format: in vitro ADME; set-up: dose or concentration left out as unconfirmed; conditions: pooled cryopreserved hepatocytes, 37° C., 1×10^6 cells/mL, 0-6 hours, LC-MS/MS, 39.5 hours is the maximum detectable half life, read-out: t½ (converted)
Protocol: Hepatic Stability Assay The metabolic stability of certain compounds disclosed herein was assessed in vitro in pooled cryopreserved hepatocytes using the in vitro half-life method. Incubations were at 37° C. and final concentrations in the incubations were 1×10^6 cells/mL and […] test concentration of the compound. Aliquots were sequentially removed after 0, 1, 3 and 6 hours and analyzed by LC-MS/MS. In vitro half-life was determined by measuring the rate of disappearance of the compound and then scaled to predicted hepatic clearance using the well-stirred model. […] As such, compounds having a value of 39.5 may have a half live that exceeds 39.5 hours.

## CC(C)(C)NC(=O)C(=O)c1c(Cl)c(C(=O)Nc2ccc(F)c(C#N)c2)n2c1CCC2 [Example 1, 7-(2-(tert-Butylamino)-2-oxoacetyl)-6-chloro-N-(3-cyano-4-fluorophenyl)-2,3-dihydro-1H-pyrrolizine-5-carboxamide]
[1]
  EC50: 27.1 nM

## Cc1c(C(=O)C(=O)NC2(c3c[nH]nn3)CC2)c2n(c1C(=O)Nc1ccc(F)c(Cl)c1)CCC2 [Example 6, 7-(2-((1-(1H-1,2,3-Triazol-4-yl)cyclopropyl)amino)-2-oxoacetyl)-N-(3-chloro-4-fluorophenyl)-6-methyl-2,3-dihydro-1H-pyrrolizine-5-carboxamide]
[1]
  EC50: 11.1 nM
[2]
  half-life: 8.2 h

## Cc1c(C(=O)C(=O)NC2(C(F)(F)F)COC2)c2n(c1C(=O)Nc1ccc(F)c(Cl)c1)CCC2 [Example 7, N-(3-chloro-4-fluorophenyl)-6-methyl-7-(2-oxo-2-((3-(trifluoromethyl)oxetan-3-yl)amino)acetyl)-2,3-dihydro-1H-pyrrolizine-5-carboxamide]
[1]
  EC50: 5.8 nM
[2]
  half-life: 4.8 h

## Cc1c(C(=O)C(=O)NC2(CNC3(C)CS(=O)(=O)C3)CC(F)(F)C2)c2n(c1C(=O)Nc1ccc(F)c(Cl)c1)CCC2 [Example 8, N-(3-chloro-4-fluorophenyl)-7-(2-((3,3-difluoro-1-(((3-methyl-1,1-dioxidothietan-3-yl)amino)methyl)cyclobutyl)amino)-2-oxoacetyl)-6-methyl-2,3-dihydro-1H-pyrrolizine-5-carboxamide]
[1]
  EC50: 72 nM
[2]
  half-life: 0.4 h

## Cc1c(C(=O)C(=O)NC2(C(=O)NC3(C)CS(=O)(=O)C3)CC(F)(F)C2)c2n(c1C(=O)Nc1ccc(F)c(Cl)c1)CCC2 [Example 9, N-(3-chloro-4-fluorophenyl)-7-(2-((3,3-difluoro-1-((3-methyl-1,1-dioxidothietan-3-yl)carbamoyl)cyclobutyl)amino)-2-oxoacetyl)-6-methyl-2,3-dihydro-1H-pyrrolizine-5-carboxamide]
[1]
  EC50: 103 nM
[2]
  half-life: 11.7 h

## Cc1c(C(=O)C(=O)NC2(C(=O)N3CCC34COC4)CC(F)(F)C2)c2n(c1C(=O)Nc1ccc(F)c(Cl)c1)CCC2 [Example 11, N-(3-chloro-4-fluorophenyl)-7-(2-((3,3-difluoro-1-(6-oxa-1-azaspiro[3.3]heptane-1-carbonyl)cyclobutyl)amino)-2-oxoacetyl)-6-methyl-2,3-dihydro-1H-pyrrolizine-5-carboxamide]
[1]
  EC50: 7.7 nM
[2]
  half-life: 0.7 h

## Cc1c(C(=O)C(=O)NC2(c3nncs3)CC2)c2n(c1C(=O)Nc1ccc(F)c(Cl)c1)CCC2 [Example 12, 7-(2-((1-(1,3,4-thiadiazol-2-yl)cyclopropyl)amino)-2-oxoacetyl)-N-(3-chloro-4-fluorophenyl)-6-methyl-2,3-dihydro-1H-pyrrolizine-5-carboxamide]
[1]
  EC50: 5 nM
[2]
  half-life: 6.4 h

## Cc1c(C(=O)C(=O)NC2(c3ccccc3)CC2)c2n(c1C(=O)Nc1cc(F)c(F)c(F)c1)CCC2 [Example 67, 6-methyl-7-(2-oxo-2-((1-phenylcyclopropyl)amino)acetyl)-N-(3,4,5-trifluorophenyl)-2,3-dihydro-1H-pyrrolizine-5-carboxamide]
[1]
  EC50: 6.5 nM

## CNC(=O)C(C)(C)NC(=O)C(=O)c1c(C)c(C(=O)Nc2ccc(F)c(Cl)c2)n2c1CCC2 [Example 82, N-(3-chloro-4-fluorophenyl)-6-methyl-7-(2-((2-methyl-1-(methylamino)-1-oxopropan-2-yl)amino)-2-oxoacetyl)-2,3-dihydro-1H-pyrrolizine-5-carboxamide]
[1]
  EC50: 133 nM

## Cc1c(C(=O)C(=O)NC2(c3cnn[nH]3)CC2)c2n(c1C(=O)Nc1cccc(OC(F)(F)F)c1)CCC2 [Example 85, 7-(2-((1-(1H-1,2,3-triazol-5-yl)cyclopropyl)amino)-2-oxoacetyl)-6-methyl-N-(3-(trifluoromethoxy)phenyl)-2,3-dihydro-1H-pyrrolizine-5-carboxamide]
[1]
  EC50: 294 nM

## Cc1c(C(=O)C(=O)NC23CC(C(N)=O)(C2)C3)c2n(c1C(=O)Nc1ccc(F)c(Cl)c1)CCC2 [Example 106, 7-(2-((3-carbamoylbicyclo[1.1.1]pentan-1-yl)amino)-2-oxoacetyl)-N-(3-chloro-4-fluorophenyl)-6-methyl-2,3-dihydro-1H-pyrrolizine-5-carboxamide]
[1]
  EC50: 124 nM

## CNC(=O)C(C)(C)NC(=O)C(=O)c1c(C)c(C(=O)Nc2ccc(F)c(C(F)F)c2)n2c1CCC2 [Example 114, N-(3-(difluoromethyl)-4-fluorophenyl)-6-methyl-7-(2-((2-methyl-1-(methylamino)-1-oxopropan-2-yl)amino)-2-oxoacetyl)-2,3-dihydro-1H-pyrrolizine-5-carboxamide]
[1]
  EC50: 156 nM

## CNC(=O)[C@@H](NC(=O)C(=O)c1c(C)c(C(=O)Nc2ccc(F)c(Cl)c2)n2c1CCC2)C(C)C [Example 128, (S)—N-(3-chloro-4-fluorophenyl)-6-methyl-7-(2-((3-methyl-1-(methylamino)-1-oxobutan-2-yl)amino)-2-oxoacetyl)-2,3-dihydro-1H-pyrrolizine-5-carboxamide]
[1]
  EC50: 170 nM

## Cc1c(C(=O)C(=O)NC2(c3c[nH]nn3)CC(F)(F)C2)c2n(c1C(=O)Nc1ccnc(C(F)F)c1F)C[C@H](F)C2 [Example 134, (R)-7-(2-((3,3-difluoro-1-(1H-1,2,3-triazol-4-yl)cyclobutyl)amino)-2-oxoacetyl)-N-(2-(difluoromethyl)-3-fluoropyridin-4-yl)-2-fluoro-6-methyl-2,3-dihydro-1H-pyrrolizine-5-carboxamide]
[2]
  half-life: 17.9 h

## Cc1c(C(=O)C(=O)NC2(C(N)=O)CC(F)(F)C2)c2n(c1C(=O)Nc1cc(F)c(F)c(F)c1)CCC2 [Example 140, 7-(2-((1-carbamoyl-3,3-difluorocyclobutyl)amino)-2-oxoacetyl)-6-methyl-N-(3,4,5-trifluorophenyl)-2,3-dihydro-1H-pyrrolizine-5-carboxamide]
[2]
  half-life: 13.5 h

## Cc1c(C(=O)C(=O)NC2(C)C[S+]([O-])C2)c2n(c1C(=O)Nc1ccc(F)c(F)c1)CCC2 (stereo not shown) [Example 145, N-(3,4-difluorophenyl)-6-methyl-7-(2-((3-methyl-1-oxidothietan-3-yl)amino)-2-oxoacetyl)-2,3-dihydro-1H-pyrrolizine-5-carboxamide]
[2]
  half-life: 9.7 h

## Cc1c(C(=O)C(=O)NC2(C(F)(F)F)COC2)c2n(c1C(=O)Nc1ccnc(C(F)F)c1F)C[C@H](F)C2 [Example 150, (R)—N-(2-(difluoromethyl)-3-fluoropyridin-4-yl)-2-fluoro-6-methyl-7-(2-oxo-2-((3-(trifluoromethyl)oxetan-3-yl)amino)acetyl)-2,3-dihydro-1H-pyrrolizine-5-carboxamide]
[2]
  half-life: 16.6 h

## Cc1c(C(=O)C(=O)N[C@]2(C)C[S@@+]([O-])C2)c2n(c1C(=O)Nc1ccc(F)c(F)c1)CCC2 [Example 151, N-(3,4-difluorophenyl)-6-methyl-7-(2-(((1r,3r)-3-methyl-1-oxidothietan-3-yl)amino)-2-oxoacetyl)-2,3-dihydro-1H-pyrrolizine-5-carboxamide]
[2]
  half-life: 5 h

## Cc1c(C(=O)C(=O)N[C@]2(C)C[S@+]([O-])C2)c2n(c1C(=O)Nc1ccc(F)c(F)c1)CCC2 [Example 152, N-(3,4-difluorophenyl)-6-methyl-7-(2-(((1s,3s)-3-methyl-1-oxidothietan-3-yl)amino)-2-oxoacetyl)-2,3-dihydro-1H-pyrrolizine-5-carboxamide]
[2]
  half-life: 10.5 h

Reference: patent publication US10328053B2 (Gilead Sciences, Inc., priority 2016, dated 2019)
